From patent publication US9346809B2 (LEO PHARMA A/S, priority 2009, dated 2016)
Where two headings read alike, the source gives them in different places.

Key:
Format in all cases: biochemical
[1] = molecular target: T1, JAK1 (aa 850-1154, catalytic domain, GST-tag) (Homo sapiens, UniProt P23458); assay: JAK kinase assay (HTRF, phosphorylation of TK substrate-biotin), JAK1; conditions: ATP at Km (7 μM), read-out: JAK1 kinase inhibitory activity (EC50 indicator)
T1 construct: JAK1 (aa 850-1154) and TYK2 (aa 871-1187) are expressed with an N-terminally fused GST-tag; GST (N); purchased Carna Biosciences, Inc; host or cells: baculovirus expression system
T1 sequence (P23458 850-1154): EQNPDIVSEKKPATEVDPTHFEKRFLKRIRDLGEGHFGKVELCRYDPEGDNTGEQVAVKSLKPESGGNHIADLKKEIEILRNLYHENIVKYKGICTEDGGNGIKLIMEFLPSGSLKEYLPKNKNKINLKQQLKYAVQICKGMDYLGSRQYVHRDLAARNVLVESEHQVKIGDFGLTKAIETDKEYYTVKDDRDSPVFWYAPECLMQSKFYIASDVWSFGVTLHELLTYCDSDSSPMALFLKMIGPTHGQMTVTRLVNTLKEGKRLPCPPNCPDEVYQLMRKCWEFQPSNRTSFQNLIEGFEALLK
In short: (§1)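 Per reaction, 5 ng JAK1, 0.1 ng JAK2, 0.3 ng JAK3 or 0.8 ng TYK2 (baculovirus-expressed catalytic domains) acted on 1 μM TK substrate-biotin at Km ATP for 20-30 min, RT. Phosphorylation measured by HTRF.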

[2] = molecular target: T2, TYK2 (aa 871-1187, catalytic domain, GST-tag) (Homo sapiens, UniProt P29597); assay: JAK kinase assay (HTRF, phosphorylation of TK substrate-biotin), TYK2; conditions: ATP at Km (13 μM), read-out: TYK2 kinase inhibitory activity (EC50 indicator)
T2 construct: JAK1 (aa 850-1154) and TYK2 (aa 871-1187) are expressed with an N-terminally fused GST-tag; GST (N); purchased Carna Biosciences, Inc; host or cells: baculovirus expression system
T2 sequence (P29597 871-1187): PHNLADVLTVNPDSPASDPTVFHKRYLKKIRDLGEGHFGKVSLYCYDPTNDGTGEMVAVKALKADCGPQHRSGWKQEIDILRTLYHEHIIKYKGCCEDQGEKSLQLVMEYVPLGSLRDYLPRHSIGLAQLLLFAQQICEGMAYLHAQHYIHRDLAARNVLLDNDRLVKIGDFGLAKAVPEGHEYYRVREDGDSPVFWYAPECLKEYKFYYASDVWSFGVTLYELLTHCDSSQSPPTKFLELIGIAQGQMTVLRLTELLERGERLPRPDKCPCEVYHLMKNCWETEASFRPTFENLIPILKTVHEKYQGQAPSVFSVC
In short: as §1

[3] = molecular target: T3, JAK2 (catalytic domain, His-tag) (Homo sapiens, UniProt O60674); assay: JAK kinase assay (HTRF, phosphorylation of TK substrate-biotin), JAK2; conditions: ATP at Km (4 μM), read-out: JAK2 kinase inhibitory activity (EC50 indicator)
T3 construct: All four purified enzymes contain only the catalytic domain; His (N); purchased Carna Biosciences, Inc; host or cells: baculovirus expression system
T3 sequence (O60674 849-1124 limits assumed): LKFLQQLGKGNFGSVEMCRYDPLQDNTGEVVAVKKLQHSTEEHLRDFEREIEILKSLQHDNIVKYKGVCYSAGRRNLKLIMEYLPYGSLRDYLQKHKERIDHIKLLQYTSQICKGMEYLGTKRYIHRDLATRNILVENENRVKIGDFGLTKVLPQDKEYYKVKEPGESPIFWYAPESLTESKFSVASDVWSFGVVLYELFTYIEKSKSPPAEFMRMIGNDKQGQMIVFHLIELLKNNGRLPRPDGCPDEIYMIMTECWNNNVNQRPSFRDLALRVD
In short: as §1

[4] = molecular target: T4, JAK3 (catalytic domain, His-tag) (Homo sapiens, UniProt P52333); assay: JAK kinase assay (HTRF, phosphorylation of TK substrate-biotin), JAK3; conditions: ATP at Km (2 μM), read-out: JAK3 kinase inhibitory activity (EC50 indicator)
T4 construct: All four purified enzymes contain only the catalytic domain; His (N); purchased Carna Biosciences, Inc; host or cells: baculovirus expression system
T4 sequence (P52333 822-1111 limits assumed): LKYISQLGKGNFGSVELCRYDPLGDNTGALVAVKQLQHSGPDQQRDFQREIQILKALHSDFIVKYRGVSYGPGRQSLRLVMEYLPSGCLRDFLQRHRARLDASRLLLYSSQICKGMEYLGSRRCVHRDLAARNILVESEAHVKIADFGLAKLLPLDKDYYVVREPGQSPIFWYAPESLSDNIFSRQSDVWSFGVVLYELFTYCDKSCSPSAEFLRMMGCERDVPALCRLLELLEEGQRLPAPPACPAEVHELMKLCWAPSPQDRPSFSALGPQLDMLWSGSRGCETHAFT
In short: as §1

Row | EC50 ([1]; HTRF assay) | EC50 ([2]; HTRF assay) | EC50 ([3]; HTRF assay) | EC50 ([4]; HTRF assay) | EC50 [1] | EC50 [2] | EC50 [3] | EC50 [4] | Structure (SMILES)
1 | 100 to 500 nM | > 500 nM | 100 to 500 nM | 100 to 500 nM |  |  |  |  | O=C(Cc1ccc(C(F)(F)F)cc1)N1[C@@H]2CC[C@@H]1CN(c1ncnc3[nH]ccc13)C2 [Example 349, 1-[3-(7H-Pyrrolo[2,3-d]pyrimidin-4-yl)-3,8-diaza-bicyclo[3.2.1]oct-8-yl]-2-(4-trifluoromethyl-phenyl)-ethanone]
2 | > 500 nM | > 500 nM | > 500 nM | > 500 nM |  |  |  |  | COC(=O)c1cc2c(N3CCN(C(=O)C4(C#N)CC4)C4(CC4)C3)ncnc2[nH]1 [Example 336, 4-[4-(1-Cyano-cyclopropanecarbonyl)-4,7-diaza-spiro[2.5]oct-7-yl]-7H-pyrrolo[2,3-d]pyrimidine-6-carboxylic acid methyl ester]
3 | > 500 nM | > 500 nM | > 500 nM | > 500 nM |  |  |  |  | Cc1c[nH]c2ncnc(N3CCN(C(=O)Cc4cccc(C#N)c4)C4(CC4)C3)c12 [Example 333, 3-{2-[7-(5-Methyl-7H-pyrrolo[2,3-d]pyrimidin-4-yl)-4,7-diaza-spiro[2.5]oct-4-yl]-2-oxo-ethyl}-benzonitrile]
4 | < 100 nM | < 100 nM | < 100 nM | < 100 nM |  |  |  |  | COc1cc(C(=O)N2CCN(c3ncnc4[nH]ccc34)CC23CC3)cs1 [Example 384, (5-Methoxy-thiophen-3-yl)-[7-(7H-pyrrolo[2,3-d]pyrimidin-4-yl)-4,7-diaza-spiro[2.5]oct-4-yl]-methanone]
5 | < 100 nM | < 100 nM | < 100 nM | < 100 nM |  |  |  |  | Cc1nc2ccccc2nc1C(=O)N1CCN(c2ncnc3[nH]ccc23)CC12CC2 [Example 419, (3-Methyl-quinoxalin-2-yl)-[7-(7H-pyrrolo[2,3-d]pyrimidin-4-yl)-4,7-diaza-spiro[2.5]oct-4-yl]-methanone]
6 | < 100 nM | < 100 nM | < 100 nM | < 100 nM |  |  |  |  | Cc1cc(C(=O)N2CCN(c3ncnc4[nH]ccc34)CC23CC3)ccc1S(N)(=O)=O [Example 380, 2-Methyl-4-[7-(7H-pyrrolo[2,3-d]pyrimidin-4-yl)-4,7-diaza-spiro[2.5]octane-4-carbonyl]-benzenesulfonamide]

Second part, the compound before the results:

Row | Structure (SMILES) | EC50 ([1]; HTRF assay) | EC50 ([2]; HTRF assay) | EC50 ([3]; HTRF assay) | EC50 ([4]; HTRF assay) | EC50 [1] | EC50 [2] | EC50 [3] | EC50 [4]
7 | Cc1c[nH]c2ncnc(N3CCN(C(=O)Cc4cccc(CC#N)c4)C4(CC4)C3)c12 [Example 327, (3-{2-[7-(5-Methyl-7H-pyrrolo[2,3-d]pyrimidin-4-yl)-4,7-diaza-spiro[2.5]oct-4-yl]-2-oxo-ethyl}-phenyl)-acetonitrile] | > 500 nM | > 500 nM | > 500 nM | > 500 nM |  |  |  | 
8 | O=C(c1cccnc1)N1CCN(c2ccnc3[nH]ccc23)CC12CC2 [Example 223, Pyridin-3-yl-[7-(1H-pyrrolo[2,3-b]pyridin-4-yl)-4,7-diaza-spiro[2.5]oct-4-yl]-methanone] | 100 to 500 nM | > 500 nM | 100 to 500 nM | > 500 nM |  |  |  | 
9 | N#CC1(C(=O)N2[C@@H]3CC[C@@H]2CN(c2ncnc4[nH]ccc24)C3)CCOCC1 [Example 248, 4-[3-(7H-Pyrrolo[2,3-d]pyrimidin-4-yl)-3,8-diaza-bicyclo[3.2.1]octane-8-carbonyl]-tetrahydro-pyran-4-carbonitrile] | 100 to 500 nM | > 500 nM | < 100 nM | 100 to 500 nM |  |  |  | 
10 | O=C(c1cccnc1)N1[C@@H]2CC[C@H]1CN(c1ncnc3[nH]ccc13)C2 [Example 57, Pyridin-3-yl-[3-(7H-pyrrolo[2,3-d]pyrimidin-4-yl)-3,8-diazabicyclo[3.2.1]oct-8-yl]methanone] |  |  |  |  | 100 to 500 nM | > 500 nM | 100 to 500 nM | > 500 nM
11 | N#CCCC(=O)N1CCN(c2nc(N)nc3[nH]ccc23)CC12CC2 [Example 313, 4-[7-(2-Amino-7H-pyrrolo[2,3-d]pyrimidin-4-yl)-4,7-diaza-spiro[2.5]oct-4-yl]-4-oxo-butyronitrile] | < 100 nM | 100 to 500 nM | < 100 nM | < 100 nM |  |  |  | 
12 | N#Cc1ccc(CS(=O)(=O)N2CCN(c3ncnc4[nH]ccc34)CC23CC3)cc1 [Example 79, 4-[7-(7H-Pyrrolo[2,3-d]pyrimidin-4-yl)-4,7-diaza-spiro[2.5]octane-4-sulfonylmethyl]-benzonitrile] |  |  |  |  | < 100 nM | > 500 nM | < 100 nM | 100 to 500 nM
13 | Cc1nccnc1C(=O)N1[C@@H]2CC[C@H]1CN(c1ncnc3[nH]ccc13)C2 [Example 72, (3-Methyl-pyrazin-2-yl)-[3-(7H-pyrrolo[2,3-d]pyrimidin-4-yl)-3,8-diaza-bicyclo[3.2.1]oct-8-yl]-methanone] |  |  |  |  | 100 to 500 nM | > 500 nM | < 100 nM | 100 to 500 nM
14 | N#CCc1ccc(C(=O)N2[C@@H]3CC[C@@H]2CN(c2ncnc4[nH]ccc24)C3)cc1 [Example 175, {4-[3-(7H-Pyrrolo[2,3-d]pyrimidin-4-yl)-3,8-diaza-bicyclo[3.2.1]octane-8-carbonyl]-phenyl}-acetonitrile] |  |  |  |  | < 100 nM | > 500 nM | < 100 nM | 100 to 500 nM
15 | N#Cc1ccc(C(=O)N2[C@@H]3CC[C@H]2CN(c2ncnc4[nH]ccc24)C3)s1 [Example 71, 5-[3-(7H-Pyrrolo[2,3-d]pyrimidin-4-yl)-3,8-diaza-bicyclo[3.2.1]octane-8-carbonyl]-thiophene-2-carbonitrile] |  |  |  |  | < 100 nM | 100 to 500 nM | < 100 nM | < 100 nM
16 | O=C(c1ccc2[nH]ccc2c1)N1CCN(c2ncnc3[nH]ccc23)CC12CC2 [Example 157, (1H-Indol-5-yl)-[7-(7H-pyrrolo[2,3-d]pyrimidin-4-yl)-4,7-diaza-spiro[2.5]oct-4-yl]-methanone] |  |  |  |  | < 100 nM | 100 to 500 nM | < 100 nM | < 100 nM
17 | O=C(c1cccc2cccnc12)N1CCN(c2ncnc3[nH]ccc23)CC12CC2 [Example 164, [7-(7H-Pyrrolo[2,3-d]pyrimidin-4-yl)-4,7-diaza-spiro[2.5]oct-4-yl]-quinolin-8-yl-methanone] |  |  |  |  | 100 to 500 nM | > 500 nM | < 100 nM | 100 to 500 nM
18 | COc1cc(OC)cc(C(=O)N2CCN(c3ncnc4[nH]ccc34)CC23CC3)c1 [Example 213, (3,5-Dimethoxy-phenyl)-[7-(7H-pyrrolo[2,3-d]pyrimidin-4-yl)-4,7-diaza-spiro[2.5]oct-4-yl]-methanone] | < 100 nM | 100 to 500 nM | < 100 nM | 100 to 500 nM |  |  |  | 
19 | N#CCc1ccccc1C(=O)N1CCN(c2ncnc3[nH]ccc23)CC12CC2 [Example 300, {2-[7-(7H-Pyrrolo[2,3-d]pyrimidin-4-yl)-4,7-diaza-spiro[2.5]octane-4-carbonyl]-phenyl}-acetonitrile] | < 100 nM | 100 to 500 nM | < 100 nM | 100 to 500 nM |  |  |  | 
20 | CC(=O)Nc1nc(N2CCN(C(=O)Cc3ccc(C#N)cc3)C3(CC3)C2)c2cc[nH]c2n1 [Example 93, N-(4-{4-[2-(4-Cyano-phenyl)-acetyl]-4,7-diaza-spiro[2.5]oct-7-yl}-7H-pyrrolo[2,3-d]pyrimidin-2-yl)-acetamide] |  |  |  |  | < 100 nM | 100 to 500 nM | < 100 nM | < 100 nM
